Patent US10472341B2, “Bicyclic tetrahydrothiazepine derivatives useful for the treatment of neoplastic and/or infectious diseases” (APEIRON BIOLOGICS AG, priority 2015, dated 2019)

System: CD8 T cells
Test: Reactivity of isolated CFSE-labeled CD8 T cells to TCR stimulation (anti-CD3/anti-CD28): cytokines, proliferation, CD25
Format: cell-based, human
Conditions: for CD25 expression [% positive cells] Average / Cell Proliferation [Cell divisions/cell] Average / IFN-gamma production [ng/ml] Average / IL-2 production [ng/ml] Average / TNF-alpha production [ng/ml] Average: anti-CD3/anti-CD28
Experimental: • Buffy coat content was transferred to sterile plastic bottle and filled up to 480 ml with PBS, and distributed equally to 16×50 ml tubes (30 ml/tube) • Underlayed with ˜11 ml Lymphoprep and centrifuged 20 min (2200 rpm) • The interphase containing lymphocytes was taken off with transfer pipette, cells were washed twice with PBS and pooled to one tube to determine cell count (Coulter Diff ACT) Isolation of Immune Cell Subfractions from PBMCs by MACS • PBMCs were resuspended in MACS buffer (80 μl MACS-buffer/10^7 cells) and cells were isolated with Auto-MACS device using respective kits following manufacturer's recommendations TCR Stimulation and Measurement of T Cell Activation
Isolated T cells were plated in Xvivo medium at 1.5*10 ^5 cells per in 96 well culture plates and TCR-stimulated with anti-CD3/28 mAbs in the presence of compound as indicated. Cytokine production was determined at 24 h or 48 h following TCR stimulation in cell culture supernatants using commercially available ELISA kits (BD and eBioscience) as recommended by the manufacturer. T cell proliferation and CD25 expression (CD25-PC5 reagent purchased from Beckman Coulter) was determined by flow cytometry (Beckman-Coulter FC500) and analysed with Kaluza Software. For measurement of CD69 expression, isolated CD4 and CD8 T cells were plated in Xvivo medium at […] per in 96 well culture plates and TCR-stimulated with anti-CD3/28 mAbs in the presence of compound. CD69 expression was determined at 24 h following TCR stimulation by flow cytometry (CD4eF450, CD8APCeF780 and CD69-PC7 reagent purchased from eBioscience) and analysed with Kaluza Software.
Isolated CD8 T cells were CFSE-labeled and stimulated with anti-CD3 and anti-CD28 antibodies.

## CCCCNC(=O)c1ccc2c(c1)N(Cc1ccc(OC(F)(F)F)cc1)C(=O)[C@@H](N)CS2(=O)=O.Cl [Example 67, (3R)-3-amino-N-butyl-1,1,4-trioxo-5-{[4-(trifluoromethoxy)phenyl]methyl}-2,3,4,5-tetrahydro-1λ^6,5-benzothiazepine-7-carboxamide hydrochloride]
0.05 μM
  CD25 expression [% positive cells] Average: 61.07 % positive cells
  Cell Proliferation [Cell divisions/cell] Average: 1.57 Cell divisions/cell
  IFN-gamma production [ng/ml] Average: 0.14 ng/mL
  IL-2 production [ng/ml] Average: 1.17 ng/mL
  TNF-alpha production [ng/ml] Average: 1.09 ng/mL
0.1 μM
  CD25 expression [% positive cells] Average: 64.24 % positive cells
  Cell Proliferation [Cell divisions/cell] Average: 1.72 Cell divisions/cell
  IFN-gamma production [ng/ml] Average: 0.22 ng/mL
  IL-2 production [ng/ml] Average: 2.32 ng/mL
  TNF-alpha production [ng/ml] Average: 1.55 ng/mL
0.25 μM
  CD25 expression [% positive cells] Average: 68.81 % positive cells
  Cell Proliferation [Cell divisions/cell] Average: 1.84 Cell divisions/cell
  IFN-gamma production [ng/ml] Average: 0.31 ng/mL
  IL-2 production [ng/ml] Average: 4.01 ng/mL
  TNF-alpha production [ng/ml] Average: 2.16 ng/mL
0.5 μM
  CD25 expression [% positive cells] Average: 67.89 % positive cells
  Cell Proliferation [Cell divisions/cell] Average: 1.88 Cell divisions/cell
  IFN-gamma production [ng/ml] Average: 0.43 ng/mL
  IL-2 production [ng/ml] Average: 7.64 ng/mL
  TNF-alpha production [ng/ml] Average: 3.13 ng/mL
1 μM
  CD25 expression [% positive cells] Average: 71.00 % positive cells
  Cell Proliferation [Cell divisions/cell] Average: 1.94 Cell divisions/cell
  IFN-gamma production [ng/ml] Average: 0.61 ng/mL
  IL-2 production [ng/ml] Average: 11.30 ng/mL
  TNF-alpha production [ng/ml] Average: 4.04 ng/mL
2.5 μM
  CD25 expression [% positive cells] Average: 71.35 % positive cells
  Cell Proliferation [Cell divisions/cell] Average: 1.93 Cell divisions/cell
  IFN-gamma production [ng/ml] Average: 0.79 ng/mL
  IL-2 production [ng/ml] Average: 16.77 ng/mL
  TNF-alpha production [ng/ml] Average: 5.37 ng/mL
5 μM
  CD25 expression [% positive cells] Average: 71.76 % positive cells
  Cell Proliferation [Cell divisions/cell] Average: 1.91 Cell divisions/cell
  IFN-gamma production [ng/ml] Average: 0.91 ng/mL
  IL-2 production [ng/ml] Average: 17.30 ng/mL
  TNF-alpha production [ng/ml] Average: 6.68 ng/mL
10 μM
  CD25 expression [% positive cells] Average: 71.90 % positive cells
  Cell Proliferation [Cell divisions/cell] Average: 1.83 Cell divisions/cell
  IFN-gamma production [ng/ml] Average: 1.15 ng/mL
  IL-2 production [ng/ml] Average: 19.63 ng/mL
  TNF-alpha production [ng/ml] Average: 7.50 ng/mL
20 μM
  CD25 expression [% positive cells] Average: 69.70 % positive cells
  Cell Proliferation [Cell divisions/cell] Average: 1.68 Cell divisions/cell
  IFN-gamma production [ng/ml] Average: 1.32 ng/mL
  IL-2 production [ng/ml] Average: 19.92 ng/mL
  TNF-alpha production [ng/ml] Average: 7.13 ng/mL
anti-CD3 and anti-CD28
  production of IL-2, IFN-gamma and TNF-alpha, CD25 expression and T cell proliferation: strongly enhanced
